Data reported in patent US20090270479A1, “Genetic and Epigenetic Alterations In the Diagnosis and Treatment of Cancer” (priority 2005, published 2009).

T1: p107 (human, UniProt P28749 1-1068)
T1 sequence (looked up): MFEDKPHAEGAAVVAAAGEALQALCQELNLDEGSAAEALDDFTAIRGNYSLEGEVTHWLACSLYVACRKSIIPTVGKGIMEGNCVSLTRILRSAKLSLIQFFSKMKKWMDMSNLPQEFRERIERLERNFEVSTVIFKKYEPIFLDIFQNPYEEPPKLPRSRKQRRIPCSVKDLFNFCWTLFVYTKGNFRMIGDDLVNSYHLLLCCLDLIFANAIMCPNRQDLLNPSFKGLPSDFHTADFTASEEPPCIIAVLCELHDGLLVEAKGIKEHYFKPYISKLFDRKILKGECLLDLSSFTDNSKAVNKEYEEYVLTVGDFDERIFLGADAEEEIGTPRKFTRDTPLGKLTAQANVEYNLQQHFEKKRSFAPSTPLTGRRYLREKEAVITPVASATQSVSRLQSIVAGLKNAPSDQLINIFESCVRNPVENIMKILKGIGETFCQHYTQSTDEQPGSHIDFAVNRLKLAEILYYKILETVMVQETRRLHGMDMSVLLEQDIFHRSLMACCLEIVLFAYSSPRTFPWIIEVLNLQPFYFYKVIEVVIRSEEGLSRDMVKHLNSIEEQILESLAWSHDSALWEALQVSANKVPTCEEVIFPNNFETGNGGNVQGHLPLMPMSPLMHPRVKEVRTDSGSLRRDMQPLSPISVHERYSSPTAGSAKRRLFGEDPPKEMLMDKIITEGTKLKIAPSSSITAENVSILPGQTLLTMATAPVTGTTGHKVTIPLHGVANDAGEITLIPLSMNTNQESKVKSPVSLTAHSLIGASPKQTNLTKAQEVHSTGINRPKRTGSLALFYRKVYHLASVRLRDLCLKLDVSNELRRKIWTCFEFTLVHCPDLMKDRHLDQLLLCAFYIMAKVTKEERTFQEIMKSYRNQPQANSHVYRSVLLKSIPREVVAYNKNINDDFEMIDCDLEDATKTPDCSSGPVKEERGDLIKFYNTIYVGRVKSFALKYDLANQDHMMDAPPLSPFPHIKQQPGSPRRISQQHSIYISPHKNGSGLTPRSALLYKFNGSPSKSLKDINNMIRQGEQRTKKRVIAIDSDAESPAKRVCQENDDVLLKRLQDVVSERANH


Experiments:
Weri-Rb1 cells [1] = assay: Cell viability (MTT) / proliferation of Weri-Rb1 cells; format: cell-based, human; conditions: 2.5 μM, after 96 h of treatment, vs untreated
Experimental: (§1) Weri-Rb1 cell line and 5-Aza-2-dc DNA methyltransferase inhibitor treatment—Human retinoblastoma cell line (Weri-Rb1 ) obtained from the American Type Culture Collection (ATCC, Manassas, Va., USA) was cultured in RPMI 1640 supplemented with 10% FCS at spin ratio of 1:2 once a week. A volume of […] of 5-Aza-2-dc, a DNA methyltransferase inhibitor (Sigma-Aldrich, St. Louis, Mo., USA) was added to medium culture of treated cells.
(§2) Cell viability (MTT) and FACS analysis—Quantitative cell viability was measured by colorimetric assay using a cell proliferation kit (MTT) (Roche Molecular Biochemicals, Mannheim, Germany). A total of 5000 cells/well Weri-Rb1 and 5-Aza-2-dc-treated Weri-Rb1 were grown in microtiter plates (96-well) in a final volume of 100 μl culture medium. The incubation period of cell culture was 24, 48 and 96 h in the presence or absence of the 2.5 μM DNA methyltransferase inhibitor. After incubation period, 10 μl MTT labeling reagent was added to each well to a final concentration […]. MTT is cleaved by growing cells to form formazan crystals which allows quantification of cell viability by spectrdphotometric analysis (ELISA) at 550 nm. Cell viability was expressed as the percentage of the absorbance of drug-treated and untreated cells relative to that of the untreated cells of 0 h. […]

[2] = tested on: pRb2/p130 expression in Weri-Rb1 cells; assay: Western blot of pRb2/p130 in treated Weri-Rb1 cells; format: cell-based, human; conditions: Weri-Rb1 whole cell lysates, treated 24-96 h, vs untreated control after 96 h culture
Experimental: as §1
Western blotting—Western blot analysis of pRb/p105 and pRb2/p130 was performed on three fresh samples of primary tumors (samples 8-10). Weri-Rb1 cells and one normal retina sample, obtained from a patient who underwent enucleation for painful absolute glaucoma, served as an experimental control. Fresh tissues were immediately frozen in liquid nitrogen. Furthermore, Weri-Rb1 cells treated and untreated with 5-Aza-2-dc at various times were processed for Western blot analysis. Whole tissues lysates were prepared by resuspending homogenized tissues and pelleted cells in lysis buffer (50 mM Tris/HCl, 5 mM EDTA, 250 mM NaCl, 50 mM NaF, 0.1% Triton X-100, 0.1 mM Na3VO4 plus fresh inhibitors). Equal amounts of 100 μg of total extracts were loaded and resolved on a 7 or 10% SDS-PAGE. The gels were then transferred onto a nitrocellulose filter and checked by using 0.1% Ponceau red. […]

Weri-Rb1 cells [3] = assay: FACS analysis of 5-Aza-2-dc treated Weri-Rb1 cells; format: cell-based, human; conditions: 2.5 μM
Experimental: as §1, §2

[4] = tested on: pRb2/p130 protein in H23 cells; assay: Western blot of pRb2/p130 in treated H23 cells; format: cell-based, human; conditions: 2.5 μM, observed at 72 hours, maximum at 96 hours
Experimental: (§3) Cell cultures and treatment—Cell lines were purchased from the American Type Culture Collection (Rockville, Md.). The cells were cultured in DMEM or RPMI1640 medium supplemented with 10% fetal bovine serum and 2 mM L-glutamine. For treatment, cells were seeded at a density of 5×10^5 cells/100-mm tissue culture dish. 2.5 μM of DNA methyltransferase inhibitor (5-AZA-2-deoxicytidine) was added to the culture medium for up 96 hours.
Western blot analysis of pRb2/p130 was performed using total protein lysates from untreated and 5-AZA-2-deoxicytidine treated H23 cells. Whole cell lysates were prepared in lysis buffer (50 mM Tris/HCl, 5 mM EDTA, 250 mM NaCl, 50 mM NaF, 0.1% Triton-X, 0.1 mM Na3VO4 plus fresh inhibitors). Equal amounts of 100 μg of total extracts were loaded and resolved on a 7% SDS-PAGE. The gels were then transferred onto a nitrocellulose filter and checked by using 0.1% Ponceau red. The monoclonal anti-pRb2/p130 (Transduction Laboratories, Ky., USA) was used at a dilution of 1:800.

[5] = tested on: RB2/p130 mRNA in H23 cells; assay: Multiplex RT-PCR of RB2/p130 mRNA in treated H23 cells; format: cell-based, human; conditions: 2.5 μM, beginning at 48 hours after treatment, vs basal level
Experimental: as §3
Multiplex RT-PCR—Multiplex RT-PCR analysis was carried out with 0.2 μg of total RNA from treated and untreated H23 cells. PCR was performed using RB2/p130 primers and β-actin specific primers (SuperScript RT-PCR System, Invitrogen).

p107 = biological target: T1, p107; assay: co-immunoprecipitation with anti-PAI-2 antibody from nuclear and cytoplasmic lysates of primary human corneal and conjunctival epithelial cells, Western blot with anti-p107
Source text: Western blot and chromatin immuoprecipitation assay—Cytoplasmic and nuclear proteins were extracted from 12 couples of paired normal human corneal and conjunctival epithelial cells by using the PARIS kit (Ambion) according to the manufacturer's instructions. Efficient cytoplasmic and nuclear fractionation was confirmed by Western blotting analysis using anti-GAPDH antibody for the cytoplasmic fraction and anti Oct-1 antibody for the nuclear fraction. Immunoprecipitation experiments were performed using the cytoplasmic and nuclear fractions with PAI-2 as immunoprecipitating antibody (N-18, Santa Cruz Biotechnology, Calif.). The presence of pRb2/p130, Rb1/p105 and p107 in both PAI-2 nuclear and cytoplasmic precipitates was assessed with anti-pRb2/p130, anti-Rb1/p105 and p107 antibodies (211.6, C-15 and C-18, respectively; Santa Cruz Biotechnology, Calif.) by Western blotting.
In order to assess whether PAI-2 associated with the retinoblastoma family proteins, PAI-2 was immunoprecipitated from nuclear and cytoplasmic lysates of twelve paired couples of normal primary human corneal and conjunctival epithelial cells. The immunoprecipitates were then analyzed by Western blotting using anti-pRb2/p130, anti-Rb1/p105, anti-p107 and anti-PAI-2 antibodies. For all the cell lines analyzed, anti-PAI-2 antibody co-immunoprecitated pRb2/p130 and Rb1/p105 from both nuclear and cytoplasmic fractions. […]

[6] = listed as 5-AZA-2-deoxycytidine

| binding result (p107) | Molecule | number of cells (proliferation rate) (Weri-Rb1 cells [1]) | expression of endogenous pRb2/p130 [2] | amount of apoptotic cells (Weri-Rb1 cells [3]; 96 h, % of treated cells (control 6%)) [%] | G1 arrested cells (Weri-Rb1 cells [3]; after 24 h, % of treated cells (control 30%)) [%] | pRb2/p130 protein level, active hypophosphorylated form [4] | pRb2/p130 protein level, active hypophosphorylated form [4, 6] | RB2/p130 mRNA level [5] | RB2/p130 mRNA level [5, 6] |
| --- | --- | --- | --- | --- | --- | --- | --- | --- | --- |
| – | Nc1ncn([C@H]2C[C@H](O)[C@@H](CO)O2)c(=O)n1 [5-Aza-dC, 5-Aza-2-deoxycytidine] | markedly reduced | increased expression | 20 | 40 | increase | increased | increase | increased |
| no binding | plasminogen activator inhibitor type-2 (other, human, UniProt P05120 1-415, looked up, Endogenous protein, immunoprecipitated with anti-PAI-2 antibody; also called PAI-2) MEDLCVANTLFALNLFKHLAKASPTQNLFLSPWSISSTMAMVYMGSRGSTEDQMAKVLQFNEVGANAVTPMTPENFTSCGFMQQIQKGSYPDAILQAQAADKIHSSFRSLSSAINASTGNYLLESVNKLFGEKSASFREEYIRLCQKYYSSEPQAVDFLECAEEARKKINSWVKTQTKGKIPNLLPEGSVDGDTRMVLVNAVYFKGKWKTPFEKKLNGLYPFRVNSAQRTPVQMMYLREKLNIGYIEDLKAQILELPYAGDVSMFLLLPDEIADVSTGLELLESEITYDKLNKWTSKDKMAEDEVEVYIPQFKLEEHYELRSILRSMGMEDAFNKGRANFSGMSERNDLFLSEVFHQAMVDVNEEGTEAAAGTGGVMTGRTGHGGPQFVADHPFLFLIMHKITNCILFFGRFSSP | – | – | – | – | – | – | – | – |
